# Data: US20250084088A1, “ANTIVIRAL COMPOUNDS AND METHODS OF MAKING AND USING THE SAME” (Gilead Sciences, Inc., priority 2023, published 2025)
# Columns and labels:
# RSV strain A2 = assay: RSV Cellomics assay for RSV A2 antiviral activity (EC50-RSV-Hep2-96-Cellomics), Example Z; assay type: cell-based; conditions: human respiratory syncytial virus, HEp-2, 72 h; Hep2 cells infected with RSV strain A2, MOI=0.05, 3 days, RSV F protein immunofluorescence
# Description: Example Z: RSV Cellomics Assay for RSV A2 Antiviral Activity (EC50-RSV-Hep2-96-Cellomics) 8×10^3 Hep2 cells are seeded into 96 well plates in 100 μL of media (DMEM supplemented with GlutaMAX, 10% FBS and Pen/Strep) and briefly spun at 50×g for 1 minute to attach cells. Cells were further allowed to attach with overnight incubation at 37° C.+5% CO2. The following day, the media was aspirated and 100 μL of fresh DMEM media containing 2% FBS was added. A three-fold dilution series of compounds of interest are then added to the plate using the Tecan D300e dispenser and the plate is normalized to the well with the highest volume of DMSO. The cells are next infected by adding 100 μL of media containing RSV strain A2 at an MOI=0.05 and the plates incubated for 3 days at 37° C.+5% CO2. Following the incubation, the media is removed, and the cells are washed once with 250 μL PBS and fixed with 250 μL ice-cold 100% methanol for 10 minutes at 4 C. The methanol is then removed and the plates air dried for 5 minutes and then washed once with 250 μL PBS to remove any residual methanol. The wells are then blocked 60 μL/well of BlockAid (B10710, Thermo-Fisher) for 1 hour at RT on rocker at which point the blocking buffer is carefully aspirated. Primary antibody against the RSV F protein (MAB 858-1) is then diluted 1:2000 in SuperBlock (37515, Thermo Fisher) and 50 μL of the primary antibody solution is added to each well. The plates are incubated at room temperature for 1 hour with gentle agitation and then washed with 250 μL of PBS-Tween 3 times. A goat anti-mouse AlexaFluor 647 conjugated secondary antibody (Sigma, A21235) is then diluted 1:2000 and Hoescht 33342 (H3570) at 1:1000 in SuperBlock and 50 μL added to the wells for 1 hour at 37° C. After incubation the antibody solution is aspirated, and the wells are then washed with 250 μL of PBS-Tween 3 times. To keep cells from drying out, 100 μL of PBS is added to each well and the plates are sealed with black plate seal. Fluorescence at the 647 nm wavelength is measured using a Cellomics CellInsight CX7 machine. Compound activity is determined as a percentage of the % positive cells (or average intensity) compared to DMSO treated RSV infected well controls following subtraction of uninfected controls. The EC50 values are then calculated using nonlinear regression analysis in GraphPad Prism.
# [1] = MT4 CC50 cytotoxicity in uninfected cells (CC50-MT4-384), Example G; assay type: cell-based; conditions: human; uninfected MT-4 cells, 4-5 days, Cell-Titer Glo
# Description: Example G. HEp-2 and MT4 CC50 Cytotoxicity of the compounds was determined in uninfected cells using the cell viability reagent in a similar fashion as described before for other cell types ([…] et al., ANTIMICROB AGENTS CHEMOTHER. 2008, 52(2):655-65). HEp-2 (1.5×10^3 cells/well) and MT-4 (2×10^3 cells/well) cells were plated in 384-well plates and incubated with the appropriate medium containing 3-fold serially diluted compound ranging from 15 nM to 100,000 nM. Cells were cultured for 4-5 days at 37° C. Following the incubation, the cells were allowed to equilibrate to 25° C., and cell viability was determined by adding Cell-Titer Glo viability reagent. The mixture was incubated for 10 min, and the luminescence signal was quantified using an Envision plate reader. Untreated cell and cells treated at 2 μM puromycin (Sigma, St. Louis, MO) serve as 100% and 0% cell viability control, respectively. The percent of cell viability was calculated for each tested compound concentration relative to the 0% and 100% controls and the CC50 value was determined by non-linear regression as a compound concentration reducing the cell viability by 50%.
Compound,EC50 (RSV strain A2),CC50 [1]
"N#C[C@]1(CO)O[C@@H](c2ccc3c(N)ncnn23)[C@H](O)[C@@H]1O [Compound 0, (2R,3S,4R,5S)-5-(4-aminopyrrolo[1,2-f][1,2,4]triazin-7-yl)-3,4-dihydroxy-2-(hydroxymethyl)tetrahydrofuran-2-carbonitrile, reference compound]",9740 nM,> 50000 nM
"CC(=O)O[C@H]1[C@H](c2ccc3c(N)ncnn23)O[C@](C#N)(COC(=O)OCC(C)C)[C@H]1OC(C)=O [Compound 1, (2R,3S,4S,5S)-5-(4-aminopyrrolo[2,1-f][1,2,4]triazin-7-yl)-2-cyano-2-(((isobutoxycarbonyl)oxy)methyl)tetrahydrofuran-3,4-diyl diacetate]",45900 nM,> 50000 nM
"CCC(=O)O[C@H]1[C@H](c2ccc3c(N)ncnn23)O[C@](C#N)(COC(=O)OCC(C)C)[C@H]1OC(=O)CC [Compound 2, (2R,3S,4S,5S)-5-(4-aminopyrrolo[2,1-f][1,2,4]triazin-7-yl)-2-cyano-2-(((isobutoxycarbonyl)oxy)methyl)tetrahydrofuran-3,4-diyl dipropionate]",49200 nM,> 50000 nM
"CCOC(=O)OC[C@@]1(C#N)O[C@@H](c2ccc3c(N)ncnn23)[C@H](OC(=O)OCC)[C@@H]1OC(=O)OCC [Compound 6, (2R,3S,4S,5S)-5-(4-aminopyrrolo[2,1-f][1,2,4]triazin-7-yl)-2-cyano-2-(((ethoxycarbonyl)oxy)methyl)tetrahydrofuran-3,4-diyl diethyl bis(carbonate)]",68600 nM,> 50000 nM
"CC(=O)O[C@H]1[C@H](c2ccc3c(N)ncnn23)O[C@](C#N)(COC(=O)OC(C)OC(=O)[C@H](C(C)C)N(C)C)[C@H]1OC(C)=O (stereo partly drawn) [Compound 7, (2R,3S,4S,5S)-5-(4-aminopyrrolo[2,1-f][1,2,4]triazin-7-yl)-2-cyano-2-((8S)-8-isopropyl-5,9-dimethyl-3,7-dioxo-2,4,6-trioxa-9-azadecyl)tetrahydrofuran-3,4-diyl diacetate]",–,> 50000 nM

# Second part, led by results:
EC50 (RSV strain A2),Compound,CC50 [1]
100000 nM,"CC(=O)O[C@H]1[C@H](c2ccc3c(N)ncnn23)O[C@](C#N)(COC(=O)OC(C)C)[C@H]1OC(C)=O [Compound 3, (2R,3S,4S,5S)-5-(4-aminopyrrolo[2,1-f][1,2,4]triazin-7-yl)-2-cyano-2-(((isopropoxycarbonyl)oxy)methyl)tetrahydrofuran-3,4-diyl diacetate]",> 50000 nM
54000 nM,"COC(=O)OC[C@@]1(C#N)O[C@@H](c2ccc3c(N)ncnn23)[C@H](OC(C)=O)[C@@H]1OC(C)=O [Compound 4, (2R,3S,4S,5S)-5-(4-aminopyrrolo[2,1-f][1,2,4]triazin-7-yl)-2-cyano-2-(((methoxycarbonyl)oxy)methyl)tetrahydrofuran-3,4-diyl diacetate]",> 50000 nM
61500 nM,"CCOC(=O)OC[C@@]1(C#N)O[C@@H](c2ccc3c(N)ncnn23)[C@H](OC(C)=O)[C@@H]1OC(C)=O [Compound 5, (2R,3S,4S,5S)-5-(4-aminopyrrolo[2,1-f][1,2,4]triazin-7-yl)-2-cyano-2-(((ethoxycarbonyl)oxy)methyl)tetrahydrofuran-3,4-diyl diacetate]",> 50000 nM
